Details: not given

First: CC(C)(C)c1ccccc1O
Second: O=C(O)c1ccccc1Cl
The boiling point of the first is lower: 223 °C for the first, 287 °C for the second.

First: N#CCCC[Si](Cl)(Cl)Cl
Second: N#CCCN
The boiling point of the first is higher: 238 °C for the first, 185 °C for the second.

First: CC(C)(C)Cl
Second: CC(=O)CC(C)(C)O
The boiling point of the first is lower: 50.5 °C for the first, 168 °C for the second.

Going from `CCN1CN(CC)CN(CC)C1` to `CCCC(=O)CC`, the boiling point falls from 208 °C to 124 °C.

First: CCc1cccc(C)c1N
Second: COc1ccc2ncccc2c1
The boiling point of the first is lower: 231 °C for the first, 306 °C for the second.

Compared with `CB(C)C`, `CC(C)C1CCCC1` is higher in boiling point: -20.2 °C for the first, 126 °C for the second.

Compared with `CCCCOCCOCCCC`, `CCCCC(CCCC)CCCC` is higher in boiling point: 203 °C for the first, 218 °C for the second.

First: CC1CCCCC1=O (centres undefined)
Second: CC1=CCCCC1
The boiling point of the first is higher: 162 °C for the first, 106 °C for the second.

Going from `CCC1CCCO1` (centres undefined) to `CCCCCC#CC(=O)OC`, the boiling point rises from 109 °C to 218 °C.

Compared with `BrCCCCCCBr`, `CC(Br)C(Br)CBr` (centres undefined) is lower in boiling point: 246 °C for the first, 220 °C for the second.

First: COc1cc(OC)c(C(=O)O)cc1OC
Second: O=C(c1ccccc1)c1ccc(-c2ccccc2)cc1
The boiling point of the first is lower: 300 °C for the first, 420 °C for the second.

Compared with `Clc1ccccc1`, `CC(C)(c1ccccc1)c1ccccc1` is higher in boiling point: 132 °C for the first, 282 °C for the second.

Work on `CC(C)(O)CCC(C)(C)O` yielded a boiling point of 214 °C.

First: CC(C)(C)c1ccccc1O
Second: O=C(O)c1ccccc1Cl
The log10 vapour pressure (mmHg) of the first is higher: -1.05 for the first, -3.18 for the second.

`O=C1C=Cc2cccc3cccc1c23` and `ClC(Cl)=C(c1ccc(Cl)cc1)c1ccccc1Cl` are within 0.2 log units of each other in log10 vapour pressure (mmHg): -5.17 for the first, -5.21 for the second.

Compared with `Clc1cc2oc3cc(Cl)c(Cl)c(Cl)c3c2cc1Cl`, `ClC1=C(Cl)[C@]2(Cl)[C@H]3[C@H]([C@@H]4C=C[C@H]3C4)[C@@]1(Cl)C2(Cl)Cl` (racemic) is higher in log10 vapour pressure (mmHg): -8.76 for the first, -3.92 for the second.

Going from `N#CCCN` to `CCCC(=O)CC`, the log10 vapour pressure (mmHg) rises from -0.0655 to 1.14.

`CCCCOCCOCCCC` and `CCCCCCCCCBr` are within 0.2 log units of each other in log10 vapour pressure (mmHg): -1.05 for the first, -0.921 for the second.

Going from `CC1CCCCC1=O` (centres undefined) to `CC1=CCCCC1`, the log10 vapour pressure (mmHg) rises from 0.352 to 1.49.

Going from `CC(=O)CC(C)(C)O` to `CC(C)C1CCCC1`, the log10 vapour pressure (mmHg) rises from 0.233 to 1.21.

First: Clc1ccccc1
Second: CCCCCCCCCCCCCCCCCCCCCl
The log10 vapour pressure (mmHg) of the first is higher: 1.08 for the first, -5.62 for the second.

Compound `CCC1CCC(C)C1` (centres undefined) has a log10 vapour pressure (mmHg) of 0.799.

Going from `CC(C)(C)c1ccccc1O` to `O=C(O)c1ccccc1Cl`, the melting point rises from -6.8 °C to 140 °C.

First: Cc1nc2cc(-c3ccccc3)ccc2o1
Second: O=C(c1ccccc1)c1ccc(-c2ccccc2)cc1
The melting point of the first is lower: 63 °C for the first, 100 °C for the second.

First: CCCCn1c2ccccc2c2ccccc21
Second: CC(C)(c1ccccc1)c1ccccc1
The melting point of the first is higher: 58 °C for the first, 29 °C for the second.

Going from `O=C1C=Cc2cccc3cccc1c23` to `O=C1CC(c2ccccc2)Oc2ccccc21` (centres undefined), the melting point falls from 154 °C to 77 °C.

Going from `CC(C)(C)Cl` to `CC(=O)CC(C)(C)O`, the melting point falls from -26 °C to -44 °C.

First: C=C(C)C(=O)Nc1ccc(Cl)c(Cl)c1
Second: O=C(NC(=O)c1c(F)cccc1F)Nc1cc(Cl)c(OC(F)(F)C(F)F)c(Cl)c1
The melting point of the first is lower: 128 °C for the first, 204 °C for the second.

Going from `CCN1CN(CC)CN(CC)C1` to `CCCC(=O)CC`, the melting point falls from 70 °C to -55.5 °C.

Compared with `O=S(=O)(O)c1ccc(Cl)cc1`, `CC(C)NNC(=O)COc1ccc(Cl)cc1` is higher in melting point: 67 °C for the first, 93.5 °C for the second.

Compared with `Clc1cc2oc3cc(Cl)c(Cl)c(Cl)c3c2cc1Cl`, `O=C(O)c1cc(F)c(F)c(F)c1` is lower in melting point: 225 °C for the first, 98 °C for the second.

First: O=c1cc(O)cc[nH]1
Second: Oc1c(F)cccc1F
The melting point of the first is higher: 278 °C for the first, 39.5 °C for the second.

First: CCc1cccc(C)c1N
Second: CCn1cc(C(=O)O)c(=O)c2ccc(C)nc21
The melting point of the first is lower: -33 °C for the first, 230 °C for the second.

Compared with `CB(C)C`, `CC(C)C1CCCC1` is higher in melting point: -162 °C for the first, -111 °C for the second.

Going from `CCCCOCCOCCCC` to `BrCCCCCCBr`, the melting point rises from -69.1 °C to -2.3 °C.

Compared with `COc1ccccc1N1CCNCC1`, `BrC1Cc2ccccc2C1Br` (centres undefined) is lower in melting point: 38.5 °C for the first, 32 °C for the second.

Compared with `O=C(/C=C/C=C/c1ccc2c(c1)OCO2)N1CCCCC1`, `C[C@]12CC[C@@H]3c4ccc(OC(=O)c5ccccc5)cc4CC[C@H]3[C@@H]1CC[C@@H]2O` is higher in melting point: 132 °C for the first, 196 °C for the second.

Going from `O=[N+]([O-])c1cc([N+](=O)[O-])c2ccccc2c1O` to `CCCC(=O)Nc1ccccc1`, the melting point falls from 131 °C to 97 °C.

Compared with `Cc1cc(CO)c(O)c(CO)c1`, `COc1cc(OC)c(C(=O)O)cc1OC` is higher in melting point: 129 °C for the first, 145 °C for the second.

Going from `OC[C@H]1O[C@H](OC[C@H]2O[C@H](O)[C@H](O)[C@@H](O)[C@@H]2O)[C@H](O)[C@@H](O)[C@H]1O` to `CCCCCC(=O)Cc1cc(O)cc2c1C(=O)Oc1cc(O)c(C(=O)O)c(CCCCC)c1O2`, the melting point rises from 86 °C to 205 °C.

First: O=C(CCCN1CCC(O)(c2ccc(Br)cc2)CC1)c1ccc(F)cc1
Second: NC(=O)c1nc(-c2ccccc2)n(-c2ccc(Cl)c(COCC(F)(F)C(F)(F)F)c2)n1
The melting point of the first is higher: 155 °C for the first, 146 °C for the second.

First: Cc1cc(C)nc(NS(=O)(=O)c2ccc(N)cc2)n1
Second: COc1ccc2ncccc2c1
The melting point of the first is higher: 198 °C for the first, 26.5 °C for the second.

First: Clc1ccccc1
Second: CC(C)(O)CCC(C)(C)O
The melting point of the first is lower: -45.2 °C for the first, 92 °C for the second.

With `CC(Br)C(Br)CBr` (centres undefined) the melting point was -19 °C.

For `CC(C)(C)Cl`, the ready biodegradability was “not readily biodegradable”.
In the case of `CCN1CN(CC)CN(CC)C1`, the ready biodegradability is reported as “readily biodegradable”.
For `O=S(=O)(O)c1ccc(Cl)cc1`, the ready biodegradability was “readily biodegradable”.
In the case of `O=C(O)c1ccccc1Cl`, the ready biodegradability is reported as “not readily biodegradable”.
For `CC(=O)CC(C)(C)O`, the ready biodegradability was “readily biodegradable”.
With `CCCC(=O)CC` the ready biodegradability was “not readily biodegradable”.
In the case of `Clc1ccccc1`, the ready biodegradability is reported as “not readily biodegradable”.

Compared with `ClC(Cl)=C(c1ccc(Cl)cc1)c1ccccc1Cl`, `Clc1ccccc1` is lower in log10 Koc (L/kg): 5.49 for the first, 2.15 for the second.

Going from `CCCC(=O)Nc1ccccc1` to `ClC1=C(Cl)[C@]2(Cl)[C@H]3[C@H]([C@@H]4C=C[C@H]3C4)[C@@]1(Cl)C2(Cl)Cl` (racemic), the log10 Koc (L/kg) rises from 1.71 to 4.69.

First: Clc1ccccc1
Second: ClC1=C(Cl)[C@]2(Cl)[C@H]3[C@H]([C@@H]4C=C[C@H]3C4)[C@@]1(Cl)C2(Cl)Cl (racemic)
The log10 Henry constant (atm·m³/mol) of the first is higher: -2.51 for the first, -4.36 for the second.

Going from `Clc1ccccc1` to `ClC1=C(Cl)[C@]2(Cl)[C@H]3[C@H]([C@@H]4C=C[C@H]3C4)[C@@]1(Cl)C2(Cl)Cl` (racemic), the log10 Koa rises from 3.31 to 8.08.

For `Clc1cc2c(oc3cc(Cl)c(Cl)c(Cl)c32)c(Cl)c1Cl`, the log10 Koa was 10.8.

Same assay, conditions: fish

Going from `Brc1cc(Br)c(-c2c(Br)cc(Br)cc2Br)c(Br)c1` to `Clc1cc2oc3cc(Cl)c(Cl)c(Cl)c3c2cc1Cl`, the log10 BCF falls from 4.66 to 3.58.

First: CCCCC(CC)COC(=O)c1ccccc1C(=O)OCC(CC)CCCC (centres undefined)
Second: O=C(O)c1ccccc1Cl
The log10 BCF of the first is higher: 2.77 for the first, 1 for the second.

Going from `c1ccc(Cc2ccccc2)cc1` to `Clc1ccccc1`, the log10 BCF falls from 2.94 to 1.25.

Going from `Clc1cc2c(oc3cc(Cl)c(Cl)c(Cl)c32)c(Cl)c1Cl` to `ClC1=C(Cl)[C@]2(Cl)[C@H]3[C@H]([C@@H]4C=C[C@H]3C4)[C@@]1(Cl)C2(Cl)Cl` (racemic), the log10 BCF falls from 3.94 to 3.74.

Going from `Brc1cc(Br)c(-c2c(Br)cc(Br)cc2Br)c(Br)c1` to `Clc1cc2c(oc3cc(Cl)c(Cl)c(Cl)c32)c(Cl)c1Cl`, the log10 biotransformation half-life (days) falls from 2.66 to 1.

First: CCCCC(CC)COC(=O)c1ccccc1C(=O)OCC(CC)CCCC (centres undefined)
Second: Clc1ccccc1
The log10 biotransformation half-life (days) of the first is higher: 0.44 for the first, -1.02 for the second.

Work on `ClC1=C(Cl)[C@]2(Cl)[C@H]3[C@H]([C@@H]4C=C[C@H]3C4)[C@@]1(Cl)C2(Cl)Cl` (racemic) yielded a log10 biotransformation half-life (days) of 1.37.

Source: the OPERA property sets (Mansouri et al. 2018)
